Measured values reported in US8361487B1, “Ant controllers and method for application thereof” (BASF Aktiengesellschaft, priority 1999, dated 2013).

Test system: Coptotermes formosanus Shiraki
Assay: Test Example 1: termite-killing test on treated filter paper
Type: in vivo
Conditions: mortality class; 1 ml of a 500 ppm solution on filter paper, seven days after inoculation, triplicate group of 10 insects
Description: A filter paper was spread in a glass dish having a diameter of 9 cm, onto which was dropped 1 ml of a 500 ppm solution of the ant controller of the present invention. Then, the filter paper was inoculated with Coptotermes formosanus Shiraki. Seven days after the inoculation, percentage of dead insects was investigated, from which mortality was calculated. The test was carried out with triplicate group of 10 insects.

SMILES	Termite-killing effect
CC(C(=NNC(=O)Nc1ccc(OC(F)(F)F)cc1)c1ccccc1)c1ccccc1 (stereo not shown) [Compound 51]	A (100)
CC(C(=NNC(=O)Nc1ccc(OC(F)(F)F)cc1)c1ccccc1)c1ccccc1 (stereo not shown) [Compound 52]	A (100)
CC(C(=NNC(=O)Nc1ccc(Cl)cc1)c1ccccc1)c1ccc(Cl)cc1 (stereo not shown) [Compound 53]	B (99-90)
CC(C(=NNC(=O)Nc1ccc(OC(F)(F)F)cc1)c1ccccc1)c1ccc(Cl)cc1 (stereo not shown) [Compound 54]	A (100)
CC(C(=NNC(=O)Nc1ccc(Cl)cc1)c1cccc(Cl)c1)c1ccc(C#N)cc1 (stereo not shown) [Compound 55]	A (100)
CC(C(=NNC(=O)Nc1ccc(OC(F)(F)F)cc1)c1cccc(Cl)c1)c1ccc(C#N)cc1 (stereo not shown) [Compound 56]	A (100)
O=C(NN=C(c1ccccc1)C(O)c1ccccc1)Nc1ccc(Cl)cc1 (stereo not shown) [Compound 57]	D (79-50)
O=C(NN=C(c1ccccc1)C(O)c1ccccc1)Nc1ccc(OC(F)(F)F)cc1 (stereo not shown) [Compound 58]	A (100)
O=C(NN=C(c1ccccc1)C(O)c1ccc(Cl)cc1)Nc1ccc(Cl)cc1 (stereo not shown) [Compound 59]	C (89-80)
O=C(NN=C(c1ccccc1)C(O)c1ccc(Cl)cc1)Nc1ccc(OC(F)(F)F)cc1 (stereo not shown) [Compound 60]	C (89-80)
N#Cc1ccc(CC(=NNC(=O)Nc2ccc([S+]([O-])C(F)(F)F)cc2)c2cccc(F)c2)cc1 (stereo not shown) [Compound 77]	A (100)
N#Cc1ccc(CC(=NNC(=O)Nc2ccc(S(=O)(=O)C(F)(F)F)cc2)c2ccc(F)cc2)cc1 [Compound 78]	A (100)
N#Cc1ccc(CC(=NNC(=O)Nc2ccc([S+]([O-])C(F)(F)F)cc2)c2cccc(Cl)c2)cc1 (stereo not shown) [Compound 79]	B (99-90)
N#Cc1ccc(CC(=NNC(=O)Nc2ccc(SC(F)(F)F)cc2)c2cccc(C(F)(F)F)c2)cc1 [Compound 80]	A (100)
N#Cc1ccc(CC(=NNC(=O)Nc2ccc([S+]([O-])C(F)(F)F)cc2)c2cccc(C(F)(F)F)c2)cc1 (stereo not shown) [Compound 81]	A (100)
N#Cc1ccc(CC(=NNC(=O)Nc2ccc(OC(F)(F)F)cc2)c2cccc(C(F)(F)F)c2)cc1 [Compound 82]	B (99-90)
N#Cc1ccc(CC(=NNC(=O)Nc2ccc(Cl)cc2)c2cccc(C(F)(F)F)c2)cc1 [Compound 83]	D (79-50)
N#Cc1ccc(CC(NNC(=O)Nc2ccc(OC(F)(F)F)cc2)c2cccc(Cl)c2)cc1 (stereo not shown) [Compound 91]	A (100)
N#Cc1ccc(CC(NNC(=O)Nc2ccc(SC(F)(F)F)cc2)c2cccc(Cl)c2)cc1 (stereo not shown) [Compound 92]	A (100)
N#Cc1ccc(CC(NNC(=O)Nc2ccc([S+]([O-])C(F)(F)F)cc2)c2cccc(Cl)c2)cc1 (stereo not shown) [Compound 93]	D (79-50)
N#Cc1ccc(CC(NNC(=O)Nc2ccc(S(=O)(=O)C(F)(F)F)cc2)c2cccc(Cl)c2)cc1 (stereo not shown) [Compound 94]	A (100)
N#Cc1ccc(CC(NNC(=O)Nc2ccc(OC(F)(F)F)cc2)c2cccc(Br)c2)cc1 (stereo not shown) [Compound 95]	A (100)
N#Cc1ccc(CC(NNC(=O)Nc2ccc(SC(F)(F)F)cc2)c2cccc(C(F)(F)F)c2)cc1 (stereo not shown) [Compound 97]	A (100)
FC(F)(F)Oc1ccc(NC(=S)NNC(Cc2ccc(Cl)cc2)c2ccccc2)cc1 (stereo not shown) [Compound 98]	A (100)
N#Cc1ccc(CC(NNC(=S)Nc2ccc(OC(F)(F)F)cc2)c2cccc(Cl)c2)cc1 (stereo not shown) [Compound 99]	A (100)
N#Cc1ccc(CC(NNC(=S)Nc2ccc(OC(F)(F)F)cc2)c2cccc(C(F)(F)F)c2)cc1 (stereo not shown) [Compound 100]	A (100)
CC(=O)N(NC(=O)Nc1ccc(OC(F)(F)F)cc1)C(Cc1ccc(C#N)cc1)c1cccc(Cl)c1 (stereo not shown) [Compound 101]	A (100)
N#Cc1ccc(CC(c2cccc(Cl)c2)N(NC(=O)Nc2ccc(OC(F)(F)F)cc2)C(=O)c2ccccc2)cc1 (stereo not shown) [Compound 102]	A (100)
